# According to ChEMBL document CHEMBL1155173, “Modulation of the cellular accumulation and intracellular activity of daptomycin towards phagocytized Staphylococcus aureus by the P-glycoprotein (MDR1) efflux transporter in human THP-1 macrophages and madin-darby canine kidney cells” (Antimicrob Agents Chemother, 2007):
# The source made the active and inactive calls. The rule behind the calls is not given here.
# Assays:
# Staphylococcus aureus [1] = experiment: Antibacterial activity against methicillin-sensitive Staphylococcus aureus ATCC 25923 phagocytized in human THP1 cells after 24 hrs; format: functional, organism-based; settings: ATCC 25923, THP-1, 24 h
# Staphylococcus aureus [2] = experiment: Antibacterial activity against methicillin-sensitive Staphylococcus aureus ATCC 25923 phagocytized in human THP1 cells assessed as concentration resulting in no apparent bacterial growth after 24 hrs; format: functional, THP-1
# Staphylococcus aureus [3] = experiment: Antibacterial activity against methicillin-sensitive Staphylococcus aureus ATCC 25923 phagocytized in human THP1 cells assessed as decrease in CFU at 1 mg/liter after 24 hrs; format: functional, THP-1
# Staphylococcus aureus [4] = experiment: Antibacterial activity against methicillin-sensitive Staphylococcus aureus ATCC 25923 phagocytized in human THP1 cells after 24 hrs in presence of 100 uM verapamil; format: functional, organism-based; settings: ATCC 25923, THP-1, 24 h
# THP-1 [5] = experiment: Cellular uptake in methicillin-sensitive Staphylococcus aureus ATCC 25923 phagocytized in human THP1 cells assessed as apparent cellular to extracellular concentration ratio at 250 mg/liter after 24 hrs under 2-deoxyglucose-induced ATP depleted condition by fluorimetry; format: ADME, cell-based; settings: thp-1, 24 h
# Staphylococcus aureus [6] = experiment: Antibacterial activity against methicillin-sensitive Staphylococcus aureus ATCC 25923 phagocytized in human THP1 cells assessed as concentration resulting in no apparent bacterial growth after 24 hrs in presence of 100 uM verapamil; format: functional, THP-1
# Staphylococcus aureus [7] = experiment: Antibacterial activity against methicillin-sensitive Staphylococcus aureus ATCC 25923 phagocytized in human THP1 cells assessed as decrease in CFU at 1 mg/liter after 24 hrs in presence of 100 uM verapamil; format: functional, THP-1
# Staphylococcus aureus [8] = experiment: Antibacterial activity against methicillin-sensitive Staphylococcus aureus ATCC 25923 phagocytized in human THP1 cells after 24 hrs in presence of 0.5 uM elacridar; format: functional, organism-based; settings: ATCC 25923, THP-1, 24 h
# Staphylococcus aureus [9] = experiment: Antibacterial activity against methicillin-sensitive Staphylococcus aureus ATCC 25923 phagocytized in human THP1 cells assessed as concentration resulting in no apparent bacterial growth after 24 hrs in presence of 0.5 uM elacridar; format: functional, THP-1
# Staphylococcus aureus [10] = experiment: Antibacterial activity against methicillin-sensitive Staphylococcus aureus ATCC 25923 phagocytized in human THP1 cells assessed as decrease in CFU at 1 mg/liter after 24 hrs in presence of 0.5 uM elacridar; format: functional, THP-1
# Staphylococcus aureus [11] = experiment: Antibacterial activity against methicillin-sensitive Staphylococcus aureus ATCC 25923 phagocytized in wild type MDCK cells after 24 hrs; format: functional, organism-based; settings: ATCC 25923, MDCK
# Staphylococcus aureus [12] = experiment: Antibacterial activity against methicillin-sensitive Staphylococcus aureus ATCC 25923 phagocytized in wild type MDCK cells assessed as concentration resulting in no apparent bacterial growth after 24 hrs; format: functional
# Staphylococcus aureus [13] = experiment: Antibacterial activity against methicillin-sensitive Staphylococcus aureus ATCC 25923 phagocytized in wild type MDCK cells assessed as decrease in CFU at 1 mg/liter after 24 hrs; format: functional
# Staphylococcus aureus [14] = experiment: Antibacterial activity against methicillin-sensitive Staphylococcus aureus ATCC 25923 phagocytized in wild type MDCK cells after 24 hrs in presence of 100 uM verapamil; format: functional, organism-based; settings: ATCC 25923, MDCK
# Staphylococcus aureus [15] = experiment: Antibacterial activity against methicillin-sensitive Staphylococcus aureus ATCC 25923 phagocytized in wild type MDCK cells assessed as concentration resulting in no apparent bacterial growth after 24 hrs in presence of 100 uM verapamil; format: functional
# Staphylococcus aureus [16] = experiment: Antibacterial activity against methicillin-sensitive Staphylococcus aureus ATCC 25923 phagocytized in wild type MDCK cells assessed as decrease in CFU at 1 mg/liter after 24 hrs in presence of 100 uM verapamil; format: functional
# Staphylococcus aureus [17] = experiment: Antibacterial activity against methicillin-sensitive Staphylococcus aureus ATCC 25923 phagocytized in MDCK cells over expressing human […] at 1 mg/liter after 24 hrs; format: functional, organism-based; settings: ATCC 25923, MDCK
# Staphylococcus aureus [18] = experiment: Antibacterial activity against methicillin-sensitive Staphylococcus aureus ATCC 25923 phagocytized in MDCK cells over expressing human […] assessed as concentration resulting in no apparent bacterial growth after 24 hrs; format: functional
# Staphylococcus aureus [19] = experiment: Antibacterial activity against methicillin-sensitive Staphylococcus aureus ATCC 25923 phagocytized in MDCK cells over expressing human […] assessed as decrease in CFU at 1 mg/liter after 24 hrs; format: functional
# Staphylococcus aureus [20] = experiment: Antibacterial activity against methicillin-sensitive Staphylococcus aureus ATCC 25923 phagocytized in MDCK cells over expressing human […] after 24 hrs in presence of 100 uM verapamil; format: functional, organism-based; settings: ATCC 25923, MDCK
# Staphylococcus aureus [21] = experiment: Antibacterial activity against methicillin-sensitive Staphylococcus aureus ATCC 25923 phagocytized in MDCK cells over expressing human […] assessed as concentration resulting in no apparent bacterial growth after 24 hrs in presence of 100 uM verapamil; format: functional
# Staphylococcus aureus [22] = experiment: Antibacterial activity against methicillin-sensitive Staphylococcus aureus ATCC 25923 phagocytized in MDCK cells over expressing human […] assessed as decrease in CFU at 1 mg/liter after 24 hrs in presence of 100 uM verapamil; format: functional
# Staphylococcus aureus [23] = experiment: Antibacterial activity against methicillin-sensitive Staphylococcus aureus ATCC 25923 phagocytized in human THP1 cells after 24 hrs in presence of 1 mg/liter daptomycin; format: functional, organism-based; settings: THP-1
# THP-1 [24] = experiment: Cellular uptake in methicillin-sensitive Staphylococcus aureus ATCC 25923 phagocytized in human THP1 cells assessed as apparent cellular to extracellular concentration ratio at 250 mg/liter after 24 hrs by fluorimetry; format: ADME, cell-based; settings: thp-1, 24 h
# THP-1 [25] = experiment: Cellular uptake in methicillin-sensitive Staphylococcus aureus ATCC 25923 phagocytized in human THP1 cells assessed as apparent cellular to extracellular concentration ratio at 250 mg/liter after 24 hrs by fluorimetry in presence of 100 uM verapamil; format: ADME, cell-based; settings: thp-1, 24 h
# THP-1 [26] = experiment: Cellular uptake in methicillin-sensitive Staphylococcus aureus ATCC 25923 phagocytized in human THP1 cells assessed as apparent cellular to extracellular concentration ratio at 250 mg/liter after 24 hrs by fluorimetry in presence of 1 uM ouabain; format: ADME, cell-based; settings: thp-1, 24 h
# THP-1 [27] = experiment: Cellular uptake in methicillin-sensitive Staphylococcus aureus ATCC 25923 phagocytized in human THP1 cells assessed as apparent cellular to extracellular concentration ratio at 250 mg/liter after 24 hrs by fluorimetry in presence of 250 uM gemfibrozil; format: ADME, cell-based; settings: thp-1, 24 h
# MDCK [28] = experiment: Cellular uptake in methicillin-sensitive Staphylococcus aureus ATCC 25923 phagocytized in wild type MDCK cells assessed as apparent cellular to extracellular concentration ratio at 250 mg/liter after 24 hrs by fluorimetry; format: ADME, cell-based, Canis lupus familiaris; settings: dog
# MDCK [29] = experiment: Cellular uptake in methicillin-sensitive Staphylococcus aureus ATCC 25923 phagocytized in wild type MDCK cells assessed as apparent cellular to extracellular concentration ratio at 250 mg/liter after 24 hrs by fluorimetry in presence of 100 uM verapamil; format: ADME, cell-based, Canis lupus familiaris; settings: dog
# MDCK [30] = experiment: Cellular uptake in methicillin-sensitive Staphylococcus aureus ATCC 25923 phagocytized in wild type MDCK cells assessed as apparent cellular to extracellular concentration ratio at 250 mg/liter after 24 hrs by fluorimetry in presence of 1 uM ouabain; format: ADME, cell-based, Canis lupus familiaris; settings: dog
# MDCK [31] = experiment: Cellular uptake in methicillin-sensitive Staphylococcus aureus ATCC 25923 phagocytized in wild type MDCK cells assessed as apparent cellular to extracellular concentration ratio at 250 mg/liter after 24 hrs by fluorimetry in presence of 250 uM gemfibrozil; format: ADME, cell-based, Canis lupus familiaris; settings: dog
# MDCK [32] = experiment: Cellular uptake in methicillin-sensitive Staphylococcus aureus ATCC 25923 phagocytized in MDCK cells over expressing human MDR1 assessed as apparent cellular to extracellular concentration ratio at 250 mg/liter after 24 hrs by fluorimetry; format: ADME, cell-based, Canis lupus familiaris; settings: dog
# MDCK [33] = experiment: Cellular uptake in methicillin-sensitive Staphylococcus aureus ATCC 25923 phagocytized in MDCK cells over expressing human MDR1 cells assessed as apparent cellular to extracellular concentration ratio at 250 mg/liter after 24 hrs by fluorimetry in presence of 100 uM verapamil; format: ADME, cell-based, Canis lupus familiaris; settings: dog
# MDCK [34] = experiment: Cellular uptake in methicillin-sensitive Staphylococcus aureus ATCC 25923 phagocytized in MDCK cells over expressing human MDR1 cells assessed as apparent cellular to extracellular concentration ratio at 250 mg/liter after 24 hrs by fluorimetry in presence of 1 uM ouabain; format: ADME, cell-based, Canis lupus familiaris; settings: dog
# MDCK [35] = experiment: Cellular uptake in methicillin-sensitive Staphylococcus aureus ATCC 25923 phagocytized in MDCK cells over expressing human MDR1 cells assessed as apparent cellular to extracellular concentration ratio at 250 mg/liter after 24 hrs by fluorimetry in presence of 250 uM gemfibrozil; format: ADME, cell-based, Canis lupus familiaris; settings: dog
# THP-1 [36] = experiment: Decrease in intracellular calcium concentration in human THP1 cells at 250 uM after 60 mins; format: functional, cell-based
# THP-1 [37] = experiment: Cellular uptake in methicillin-sensitive Staphylococcus aureus ATCC 25923 phagocytized in human mdr1 siRNAs- induced MDR1 deficient human THP1 cells assessed as increase accumulation at 250 mg/liter after 24 hrs by […]; format: ADME, cell-based; settings: thp-1, 24 h
# THP-1 [38] = experiment: Decrease in intracellular calcium concentration in human THP1 cells at 100 uM after 60 mins; format: functional; design: scale not given: the % may be the effect or the level left
# THP-1 [39] = experiment: Decrease in intracellular calcium concentration in human THP1 cells at 50 uM after 60 mins; format: functional; design: scale not given: the % may be the effect or the level left
smiles,measurement,setting,value
CCCCCCCCCC(=O)N[C@@H](Cc1c[nH]c2ccccc12)C(=O)N[C@H](CC(N)=O)C(=O)N[C@@H](CC(=O)O)C(=O)N[C@@H]1C(=O)NCC(=O)N[C@@H](CCCN)C(=O)N[C@@H](CC(=O)O)C(=O)N[C@H](C)C(=O)N[C@@H](CC(=O)O)C(=O)NCC(=O)N[C@H](CO)C(=O)N[C@@H]([C@H](C)CC(=O)O)C(=O)N[C@@H](CC(=O)c2ccccc2N)C(=O)O[C@@H]1C,EC50,Staphylococcus aureus [1],1.14 µg/mL
same,Activity,Staphylococcus aureus [2],1.3 mg/L
same,log10cfu,Staphylococcus aureus [3],-1.6
same,EC50,Staphylococcus aureus [4],0.31 µg/mL
same,Ratio,THP-1 [5],0.82
same,Activity,Staphylococcus aureus [6],0.4 mg/L
same,log10cfu,Staphylococcus aureus [7],-1.82
same,EC50,Staphylococcus aureus [8],0.27 µg/mL
same,Activity,Staphylococcus aureus [9],0.4 mg/L
same,log10cfu,Staphylococcus aureus [10],-1.67
same,EC50,Staphylococcus aureus [11],0.62 µg/mL
same,Activity,Staphylococcus aureus [12],0.6 mg/L
same,log10cfu,Staphylococcus aureus [13],-1.7
same,EC50,Staphylococcus aureus [14],0.18 µg/mL
same,Activity,Staphylococcus aureus [15],0.2 mg/L
same,log10cfu,Staphylococcus aureus [16],-2.01
same,EC50,Staphylococcus aureus [17],2.67 µg/mL
same,Activity,Staphylococcus aureus [18],2.1 mg/L
same,log10cfu,Staphylococcus aureus [19],-1.77
same,EC50,Staphylococcus aureus [20],0.7 µg/mL
same,Activity,Staphylococcus aureus [21],0.6 mg/L
same,log10cfu,Staphylococcus aureus [22],-1.78
same,Activity,Staphylococcus aureus [23],Dose-dependent effect
same,Ratio,THP-1 [24],0.21
same,Ratio,THP-1 [25],0.75
same,Ratio,THP-1 [26],0.12
same,Ratio,THP-1 [27],0.18
same,Ratio,MDCK [28],0.23
same,Ratio,MDCK [29],0.83
same,Ratio,MDCK [30],0.04
same,Ratio,MDCK [31],0.18
same,Ratio,MDCK [32],0.08
same,Ratio,MDCK [33],0.3
same,Ratio,MDCK [34],0.03
same,Ratio,MDCK [35],0.07
Cc1ccc(C)c(OCCCC(C)(C)C(=O)O)c1,Activity,THP-1 [36],inactive
COc1cc2c(cc1OC)CN(CCc1ccc(NC(=O)c3cccc4c(=O)c5cccc(OC)c5[nH]c34)cc1)CC2,Activity,Staphylococcus aureus [23],Dose-dependent effect
C[C@@H]1O[C@@H](O[C@H]2C[C@@H](O)[C@]3(CO)[C@H]4[C@H](O)C[C@]5(C)[C@@H](C6=CC(=O)OC6)CC[C@]5(O)[C@@H]4CC[C@]3(O)C2)[C@H](O)[C@H](O)[C@H]1O [OUABAIN],Activity,THP-1 [37],Active
COc1ccc(CCN(C)CCCC(C#N)(c2ccc(OC)c(OC)c2)C(C)C)cc1OC (stereo unspecified) [VERAPAMIL],Activity,Staphylococcus aureus [23],Dose-dependent effect
same,Activity,THP-1 [38],25%
C[C@H](CCC(=O)[O-])C[C@H](C)C[C@H](C)C(=O)/C=C(\[O-])[C@H](C)C[C@H](C)C/C=C/[C@@H](C)[C@@H](O)[C@@H](C)[C@@H](O)C[C@@H]1CC[C@@](C)([C@H]2CC[C@@](C)([C@@H](C)O)O2)O1.[Ca+2] [IONOMYCIN CALCIUM],Activity,THP-1 [39],75%
